target: human NaV 1.8 (Homo sapiens, UniProt Q9Y5Y9); assay: E-VIPR assay for detecting and measuring NaV inhibition properties; type: cell-based; conditions: E-VIPR assay conducted in the absence of human serum (compounds marked *); HEK cells expressing truncated human NaV 1.8; read-out: IC50
Method in brief: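 HEK cells with truncated human NaV1.8 plus KIR2.1 BacMam, hexyl dye loaded 20 min, compound 30 min at room temperature, 11-point 3-fold series […], 0.625% DMSO, with or without human serum. E-VIPR biphasic stimulation at 10 Hz for 10 s; membrane-potential response read as normalized coumarin/oxonol ratio.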

Sequence of human NaV 1.8 (Q9Y5Y9 whole entry, looked up, the tested form may be a part): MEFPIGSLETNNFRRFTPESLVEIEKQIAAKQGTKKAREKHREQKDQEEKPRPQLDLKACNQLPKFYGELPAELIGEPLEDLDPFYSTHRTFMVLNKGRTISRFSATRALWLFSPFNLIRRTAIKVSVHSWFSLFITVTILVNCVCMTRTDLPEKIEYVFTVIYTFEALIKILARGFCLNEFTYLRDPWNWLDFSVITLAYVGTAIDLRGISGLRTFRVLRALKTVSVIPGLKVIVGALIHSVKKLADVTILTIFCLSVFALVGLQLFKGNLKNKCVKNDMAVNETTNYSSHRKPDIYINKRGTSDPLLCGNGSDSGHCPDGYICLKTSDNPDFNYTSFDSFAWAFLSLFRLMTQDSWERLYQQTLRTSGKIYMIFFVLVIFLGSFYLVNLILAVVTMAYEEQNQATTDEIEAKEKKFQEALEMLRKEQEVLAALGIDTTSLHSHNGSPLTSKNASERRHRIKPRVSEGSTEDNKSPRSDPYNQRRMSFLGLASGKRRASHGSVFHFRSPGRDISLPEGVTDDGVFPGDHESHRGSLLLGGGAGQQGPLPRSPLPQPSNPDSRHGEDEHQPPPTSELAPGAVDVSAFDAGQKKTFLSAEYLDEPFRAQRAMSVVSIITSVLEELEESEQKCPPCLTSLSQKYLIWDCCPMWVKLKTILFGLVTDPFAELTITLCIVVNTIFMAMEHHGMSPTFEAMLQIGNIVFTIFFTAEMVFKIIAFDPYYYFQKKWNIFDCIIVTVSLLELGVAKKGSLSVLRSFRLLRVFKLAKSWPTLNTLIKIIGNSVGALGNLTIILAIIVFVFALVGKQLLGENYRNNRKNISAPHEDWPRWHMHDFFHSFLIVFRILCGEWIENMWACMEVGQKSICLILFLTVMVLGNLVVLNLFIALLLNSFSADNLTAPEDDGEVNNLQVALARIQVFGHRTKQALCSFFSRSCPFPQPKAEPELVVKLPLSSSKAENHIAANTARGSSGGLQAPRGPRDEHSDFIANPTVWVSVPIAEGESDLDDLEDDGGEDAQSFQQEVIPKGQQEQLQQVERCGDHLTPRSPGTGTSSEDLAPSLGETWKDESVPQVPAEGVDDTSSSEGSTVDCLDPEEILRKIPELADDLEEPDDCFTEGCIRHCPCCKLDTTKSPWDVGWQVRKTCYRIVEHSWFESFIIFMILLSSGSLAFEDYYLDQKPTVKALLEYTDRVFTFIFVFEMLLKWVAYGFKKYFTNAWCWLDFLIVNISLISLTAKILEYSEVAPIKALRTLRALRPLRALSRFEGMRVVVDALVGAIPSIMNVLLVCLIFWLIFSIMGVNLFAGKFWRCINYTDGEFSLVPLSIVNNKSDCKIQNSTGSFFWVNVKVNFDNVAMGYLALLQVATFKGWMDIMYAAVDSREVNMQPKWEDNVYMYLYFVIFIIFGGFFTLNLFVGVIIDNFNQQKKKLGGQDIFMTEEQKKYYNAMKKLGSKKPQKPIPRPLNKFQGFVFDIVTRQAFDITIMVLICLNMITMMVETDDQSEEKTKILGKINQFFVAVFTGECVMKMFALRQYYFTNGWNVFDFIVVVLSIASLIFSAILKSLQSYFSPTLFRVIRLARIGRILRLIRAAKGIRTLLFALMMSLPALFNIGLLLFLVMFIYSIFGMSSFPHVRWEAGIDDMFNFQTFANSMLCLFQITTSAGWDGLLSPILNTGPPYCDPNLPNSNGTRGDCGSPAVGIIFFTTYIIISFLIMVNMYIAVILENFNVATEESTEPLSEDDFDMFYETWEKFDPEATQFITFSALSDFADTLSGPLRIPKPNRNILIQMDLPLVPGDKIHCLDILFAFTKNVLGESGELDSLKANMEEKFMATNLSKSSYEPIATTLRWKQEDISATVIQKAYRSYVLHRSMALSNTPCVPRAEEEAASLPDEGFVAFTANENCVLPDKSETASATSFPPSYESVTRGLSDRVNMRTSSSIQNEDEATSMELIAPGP

IC50 [nM]	Structure (SMILES)
14	COc1cc(OC(F)(F)F)ccc1Oc1cc(F)cc(F)c1C(=O)Nc1ccnc(C(N)=O)c1 [Compound 360, 4-[[2,4-difluoro-6-[2-methoxy-4-(trifluoromethoxy)phenoxy]benzoyl]amino]pyridine-2-carboxamide]
44	Cc1c(Oc2ccc(C(F)(F)F)cc2C(=O)Nc2ccnc(C(N)=O)c2)ccc(F)c1F [Compound 361, 4-[[2-(3,4-difluoro-2-methyl-phenoxy)-5-(trifluoromethyl)benzoyl]amino]pyridine-2-carboxamide]
2	COc1cc(OC(F)(F)F)ccc1Oc1cc(OC)c(C)c(F)c1C(=O)Nc1ccnc(C(N)=O)c1 [Compound 362, 4-[[2-fluoro-4-methoxy-6-[2-methoxy-4-(trifluoromethoxy)phenoxy]-3-methyl-benzoyl]amino]pyridine-2-carboxamide]
3	COc1cc(OC(F)(F)F)ccc1Oc1cc(OC)c(C)c(Cl)c1C(=O)Nc1ccnc(C(N)=O)c1 [Compound 363, 4-[[2-chloro-4-methoxy-6-[2-methoxy-4-(trifluoromethoxy)phenoxy]-3-methyl-benzoyl]amino]pyridine-2-carboxamide]
46	Cc1nc(C(C)(C)C)cc(Oc2ccc(F)cc2Cl)c1C(=O)Nc1ccnc(C(N)=O)c1 [Compound 364, 6-tert-butyl-N-(2-carbamoyl-4-pyridyl)-4-(2-chloro-4-fluoro-phenoxy)-2-methyl-pyridine-3-carboxamide]
13	COc1cc(Oc2ccc(F)cc2Cl)c(C(=O)Nc2cnc(C(N)=O)nc2)c(F)c1C(F)(F)F [Compound 366, 5-[[6-(2-chloro-4-fluoro-phenoxy)-2-fluoro-4-methoxy-3-(trifluoromethyl)benzoyl]amino]pyrimidine-2-carboxamide]
5	COc1c(C(F)(F)F)cc(Oc2ccc(F)cc2Cl)c(C(=O)Nc2cc(C(N)=O)ncc2C)c1F [Compound 382, 4-(6-(2-Chloro-4-Fluorophenoxy)-2-Fluoro-3-Methoxy-4-(Trifluoromethyl)Benzamido)-5-Methylpicolinamide]

same assay, conditions: E-VIPR assay conducted in the presence of human serum; HEK cells expressing truncated human NaV 1.8; read-out: IC50

IC50 [nM]	Structure (SMILES)
50	COc1cc(Oc2ccc(F)cc2Cl)c(C(=O)Nc2ccnc(C(N)=O)c2)c(F)c1C(F)(F)F [Compound 365, 4-[[6-(2-chloro-4-fluoro-phenoxy)-2-fluoro-4-methoxy-3-(trifluoromethyl)benzoyl]amino]pyridine-2-carboxamide]
330	COc1cc(Oc2ccc(F)cc2Cl)c(C(=O)Nc2ccc(C(N)=O)nc2)c(F)c1C(F)(F)F [Compound 367, 5-[[6-(2-chloro-4-fluoro-phenoxy)-2-fluoro-4-methoxy-3-(trifluoromethyl)benzoyl]amino]pyridine-2-carboxamide]
5	COc1cc(Oc2ccc(OC(F)(F)F)cc2Cl)c(C(=O)Nc2ccnc(C(N)=O)c2)c(F)c1C(F)(F)F [Compound 368, 4-[[6-[2-Chloro-4-(Trifluoromethoxy)Phenoxy]-2-Fluoro-4-Methoxy-3-(Trifluoromethyl)Benzoyl]Amino]Pyridine-2-Carboxamide]
9	COc1cc(Oc2ccc(OC(F)(F)F)cc2Cl)c(C(=O)Nc2cnc(C(N)=O)nc2)c(F)c1C(F)(F)F [Compound 369, 5-[[6-[2-chloro-4-(trifluoromethoxy)phenoxy]-2-fluoro-4-methoxy-3-(trifluoromethyl)benzoyl]amino]pyrimidine-2-carboxamide]
43	COc1cc(Oc2ccc(OC(F)(F)F)cc2Cl)c(C(=O)Nc2ccc(C(N)=O)nc2)c(F)c1C(F)(F)F [Compound 370, 5-[[6-[2-chloro-4-(trifluoromethoxy)phenoxy]-2-fluoro-4-methoxy-3-(trifluoromethyl)benzoyl]amino]pyridine-2-carboxamide]
12	COc1cc(Oc2ccc(F)c(F)c2OC)c(C(=O)Nc2ccnc(C(N)=O)c2)c(F)c1C [Compound 372, 4-[[6-(3,4-difluoro-2-methoxy-phenoxy)-2-fluoro-4-methoxy-3-methyl-benzoyl]amino]pyridine-2-carboxamide]
6	COc1c(Oc2cc(Cl)c(C)c(F)c2C(=O)Nc2ccnc(C(N)=O)c2)ccc(F)c1F [Compound 373, 4-[[4-chloro-6-(3,4-difluoro-2-methoxy-phenoxy)-2-fluoro-3-methyl-benzoyl]amino]pyridine-2-carboxamide]
34	COc1c(Oc2ccc(OC3CC3)c(F)c2C(=O)Nc2ccnc(C(N)=O)c2)ccc(F)c1F [Compound 374, 4-[[3-(cyclopropoxy)-6-(3,4-difluoro-2-methoxy-phenoxy)-2-fluoro-benzoyl]amino]pyridine-2-carboxamide]
29	COc1c(Oc2cnc(C(F)(F)F)c(C)c2C(=O)Nc2ccnc(C(N)=O)c2)ccc(F)c1F [Compound 375, N-(2-carbamoyl-4-pyridyl)-5-(3,4-difluoro-2-methoxy-phenoxy)-3-methyl-2-(trifluoromethyl)pyridine-4-carboxamide]
9	COc1c(Oc2cc(C(F)(F)F)c(OC)c(F)c2C(=O)Nc2cc(C(N)=O)ncc2C)ccc(F)c1F [Compound 376, 4-[[6-(3,4-difluoro-2-methoxy-phenoxy)-2-fluoro-3-methoxy-4-(trifluoromethyl)benzoyl]amino]-5-methyl-pyridine-2-carboxamide]
21	COc1c(Oc2cc(C(F)(F)F)c(OC)c(F)c2C(=O)Nc2ccc(C(N)=O)nc2)ccc(F)c1F [Compound 377, 5-[[6-(3,4-difluoro-2-methoxy-phenoxy)-2-fluoro-3-methoxy-4-(trifluoromethyl)benzoyl]amino]pyridine-2-carboxamide]
26	COc1cc(Oc2ccc(F)c(F)c2OC)c(C(=O)Nc2cnc(C(N)=O)nc2)c(F)c1C(F)(F)F [Compound 380, 5-[[6-(3,4-difluoro-2-methoxy-phenoxy)-2-fluoro-4-methoxy-3-(trifluoromethyl)benzoyl]amino]pyrimidine-2-carboxamide]
16	COc1cc(Oc2ccc(F)c(F)c2OC)c(C(=O)Nc2ccc(C(N)=O)nc2)c(F)c1C(F)(F)F [Compound 381, 5-[[6-(3,4-difluoro-2-methoxy-phenoxy)-2-fluoro-4-methoxy-3-(trifluoromethyl)benzoyl]amino]pyridine-2-carboxamide]
> 3000	COc1cc(OC(F)(F)F)ccc1Oc1ccc(C(F)(F)F)c(O)c1C(=O)Nc1ccnc(C(N)=O)c1 [Compound 383, 4-[[2-hydroxy-6-[2-methoxy-4-(trifluoromethoxy)phenoxy]-3-(trifluoromethyl)benzoyl]amino]pyridine-2-carboxamide]
19	[2H]C([2H])([2H])Oc1cc(OC(F)(F)F)ccc1Oc1cc(C2=CCCCC2)cc(F)c1C(=O)Nc1ccnc(C(N)=O)c1 [Compound 1001, 4-[[4-(cyclohexen-1-yl)-2-fluoro-6-[2-(trideuteriomethoxy)-4-(trifluoromethoxy)phenoxy]benzoyl]amino]pyridine-2-carboxamide]
30	[2H]C([2H])([2H])Oc1cc(OC(F)(F)F)ccc1Oc1cc(C2=COCCC2)cc(F)c1C(=O)Nc1ccnc(C(N)=O)c1 [Compound 1002, 4-[[4-(3,4-dihydro-2H-pyran-5-yl)-2-fluoro-6-[2-(trideuteriomethoxy)-4-(trifluoromethoxy)phenoxy]benzoyl]amino]pyridine-2-carboxamide]
26	[2H]C([2H])([2H])Oc1cc(OC(F)(F)F)ccc1Oc1cc(C2=CCC(F)(F)CC2)cc(F)c1C(=O)Nc1ccnc(C(N)=O)c1 [Compound 1003, 4-[[4-(4,4-difluorocyclohexen-1-yl)-2-fluoro-6-[2-(trideuteriomethoxy)-4-(trifluoromethoxy)phenoxy]benzoyl]amino]pyridine-2-carboxamide]
29	[2H]C([2H])([2H])Oc1cc(OC(F)(F)F)ccc1Oc1cc(C2=CCOC2)cc(F)c1C(=O)Nc1ccnc(C(N)=O)c1 [Compound 1004, 4-[[4-(2,5-dihydrofuran-3-yl)-2-fluoro-6-[2-(trideuteriomethoxy)-4-(trifluoromethoxy)phenoxy]benzoyl]amino]pyridine-2-carboxamide]
120	[2H]C([2H])([2H])Oc1cc(OC(F)(F)F)ccc1Oc1cc(C2=CCOCC2)cc(F)c1C(=O)Nc1ccnc(C(N)=O)c1 [Compound 1005, 4-[[4-(3,6-dihydro-2H-pyran-4-yl)-2-fluoro-6-[2-(trideuteriomethoxy)-4-(trifluoromethoxy)phenoxy]benzoyl]amino]pyridine-2-carboxamide]
> 3000	[2H]C([2H])([2H])Oc1cc(OC(F)(F)F)ccc1Oc1cc(-c2ccccc2C(N)=O)cc(F)c1C(=O)Nc1ccnc(C(N)=O)c1 [Compound 1006, 4-[[4-(2-carbamoylphenyl)-2-fluoro-6-[2-(trideuteriomethoxy)-4-(trifluoromethoxy)phenoxy]benzoyl]amino]pyridine-2-carboxamide]
170	[2H]C([2H])([2H])Oc1cc(OC(F)(F)F)ccc1Oc1cc(-c2ccc(OC)cc2)cc(F)c1C(=O)Nc1ccnc(C(N)=O)c1 [Compound 1007, 4-[[2-fluoro-4-(4-methoxyphenyl)-6-[2-(trideuteriomethoxy)-4-(trifluoromethoxy)phenoxy]benzoyl]amino]pyridine-2-carboxamide]
21	[2H]C([2H])([2H])Oc1cc(OC(F)(F)F)ccc1Oc1cc(C2=COCC2)cc(F)c1C(=O)Nc1ccnc(C(N)=O)c1 [Compound 1008, 4-[[4-(2,3-dihydrofuran-4-yl)-2-fluoro-6-[2-(trideuteriomethoxy)-4-(trifluoromethoxy)phenoxy]benzoyl]amino]pyridine-2-carboxamide]
170	[2H]C([2H])([2H])Oc1cc(OC(F)(F)F)ccc1Oc1cc(C2=CCC(OC)CC2)cc(F)c1C(=O)Nc1ccnc(C(N)=O)c1 (stereo not drawn) [Compound 1009, 4-[[2-fluoro-4-(4-methoxycyclohexen-1-yl)-6-[2-(trideuteriomethoxy)-4-(trifluoromethoxy)phenoxy]benzoyl]amino]pyridine-2-carboxamide]

— patent publication US12441703B2, “Carboxamides as modulators of sodium channels” (VERTEX PHARMACEUTICALS INCORPORATED, priority 2019, dated 2025)
